Source: patent EP0207696A1, “Dialkylaminotetrahydrobenzothiazoles and oxazoles” (ELI LILLY AND COMPANY, priority 1985, dated 1987)

Tests used:
[1] = system: 6-hydroxydopamine-lesioned rats; test: turning behavior in 6-hydroxydopamine-lesioned rats; assay type: in vivo; settings: 1000 mcg/kg; first 15 minutes after the end of the latency period
From the text: Dopamine agonists are also known to affect turning behavior in 6-hydroxydopamine-lesioned rats in a test procedure designed to uncover compounds useful for the treatment of Parkinsonism. In this test, nigroneostriatal-lesioned rats are employed, as prepared by the procedure of Ungerstedt and Arbuthnott, Brain Res, 24, 485 (1970). A compound having dopamine agonist activity causes the rats to turn in circles contralateral to the side of the lesion. After a latency period, which varies from compound to compound, the number of turns is counted over a 15-minute period.
Results obtained from such testing for (±)-2-amino-6-di-n-propylamino-5,6,7,8-tetrahydrobenzothiazole dihydrobromide are set forth in Table 2 below. In the table, column 1 gives the dose and column 2 the average number of turns observed in first 15 minutes after the end of the latency period.

[2] = system: anesthetized spontaneously hypertensive rats; test: blood pressure in anesthetized spontaneously hypertensive rats; assay type: in vivo; settings: anesthetized SHR
Method: Compounds according to XX, particularly those wherein both R^3 and R^4 are methyl, reduce the blood pressure of anesthetized spontaneously hypertensive rats, as illustrated by the following experiment: • Adult male spontaneously hypertensive rats (SHR) (Taconic Farms, Germantown, New York), weighing approximately 300 g. were anesthetized with pentobarbital sodium (60 mg./kg., i.p.). The trachea was cannulated and the SHR respired room air. Pulsatile arterial blood pressure was measured from a cannulated carotid artery using a Statham transducer (P23 ID). Mean arterial blood pressure was calculated as diastolic blood pressure plus 1/3 pulse pressure. Cardiac rate was monitored by a cardiotachometer which was triggered by the systolic pressure pulse. Drug solutions were administered i.v. through a catheter placed in a femoral vein.
Arterial blood pressure and cardiac rate were recorded on a multichannel oscillograph (Beckman, Model R511A). Fifteen minutes were allowed to elapse following surgery for equilibration of the preparation.
Table 3 which follows gives the results of this test using (±)-2-amino-6-di-n-propyl-5,6,7,8-tetra- hydrobenzothiazole dihydrobromide. In Table 3, column 1 gives the dose level, column 2, the change in mean arterial blood pressure.

prolactin secretion = test: inhibition of prolactin secretion in reserpinized rats; assay type: in vivo, rats of the Sprague-Dawley strain; settings: percent prolactin inhibition; 50 mcg/kg intraperitoneally; serum one hour after treatment; reserpine-pretreated male rats
From the text: As previously stated, the compounds of this invention (wherein neither R^3 nor R^4 is H) are receptor agonists; ie, they are capable of increasing the quantities of various neurohormones--dopamine and norepi- nephrine in particular--available for interaction with specific receptors. For example, the compound according to XX wherein R^1 and R^2 are H and R^3 and R^4 are both n-propyl, is a specific dopamine D-2 agonist.
Adult male rats of the Sprague-Dawley strain weighing about 200 g were housed in an air-conditioned room with controlled lighting (lights on 6 a.m. - 8 p.m.) and fed lab chow and water ad libitum. Each rat received an intraperitoneal injection of 2.0 mg of reserpine in aqueous suspension 18 hours before administration of the test drug. The purpose of the reserpine was to keep the rat prolactin levels uniformly elevated. The compound was dissolved in 10 percent ethanol, and injected intraperitoneally to groups of ten rats at preselected dose levels. A control group of 10 intact males received an equivalent amount of 10 percent ethanol. One hour after treatment, all rats were killed by decapitation, and 150 µl aliquots of serum were assayed for prolactin.
The difference between the prolactin levels of the treated rats and the control rats, divided by the prolactin level of the control rats gives the percent inhibition of prolactin secretion attributable to the given dose. […]

conscious SHR = test: hypotensive action in conscious SHR; assay type: in vivo; settings: 1 mg/kg i.v.
Method: In another test for hypotensive action conscious SHR, cannulated in the femoral artery and vein, were used. The drug was administered i.v. (±)-2-Amino-6-dimethylamino-5,6,7,8-tetrahydrobenzothiazole was tested in this system as the dihydrobromide salt at a 1 mg/kg dose. In the table, column 1 gives time in minutes after injection and columns 2 and 3 the mean percent decrease in arterial pressure and heart rate respectively for that time interval.

CCCN(CCC)C1CCc2nc(N)sc2C1 (racemic) [(±)-2-Amino-6-di-n-propylamino-5,6,7,8-tetrahydrobenzothiazole]
Average number of Turns [1]: 51
Decrease in Mean Arterial Blood Pressure ([2]; 1 mcg/kg i.v.): -16.1 ± 2.4
Decrease in Mean Arterial Blood Pressure ([2]; 10 mcg/kg i.v.): -21.0 ± 2.0
Decrease in Mean Arterial Blood Pressure ([2]; 100 mcg/kg i.v.): -34.1 ± 3.2
Decrease in Mean Arterial Blood Pressure ([2]; 1000 mcg/kg i.v.): +13.5 ± 4.4
% Inhibition (prolactin secretion): 30%

CN(C)C1CCc2nc(N)sc2C1 (racemic) [(±)-2-Amino-6-dimethylamino-5,6,7,8-tetrahydrobenzothiazole]
PERCENT CHANGE FROM CONTROL Blood Pressure (conscious SHR; 5 minutes after injection): -3.6%
PERCENT CHANGE FROM CONTROL Heart Rate (conscious SHR; 5 minutes after injection): -12.3%
PERCENT CHANGE FROM CONTROL Blood Pressure (conscious SHR; 15 minutes after injection): -17.1%
PERCENT CHANGE FROM CONTROL Heart Rate (conscious SHR; 15 minutes after injection): -17.7%
PERCENT CHANGE FROM CONTROL Blood Pressure (conscious SHR; 30 minutes after injection): -18.6%
PERCENT CHANGE FROM CONTROL Heart Rate (conscious SHR; 30 minutes after injection): -15.5%
PERCENT CHANGE FROM CONTROL Blood Pressure (conscious SHR; 45 minutes after injection): -16.9%
PERCENT CHANGE FROM CONTROL Heart Rate (conscious SHR; 45 minutes after injection): -8.3%
PERCENT CHANGE FROM CONTROL Blood Pressure (conscious SHR; 60 minutes after injection): -17.2%
PERCENT CHANGE FROM CONTROL Heart Rate (conscious SHR; 60 minutes after injection): -5.2%
PERCENT CHANGE FROM CONTROL Blood Pressure (conscious SHR; 90 minutes after injection): -16.9%
PERCENT CHANGE FROM CONTROL Heart Rate (conscious SHR; 90 minutes after injection): -0.7%
PERCENT CHANGE FROM CONTROL Blood Pressure (conscious SHR; 120 minutes after injection): -15.8%
PERCENT CHANGE FROM CONTROL Heart Rate (conscious SHR; 120 minutes after injection): -4.1%
PERCENT CHANGE FROM CONTROL Blood Pressure (conscious SHR; 180 minutes after injection): -14.7%
PERCENT CHANGE FROM CONTROL Heart Rate (conscious SHR; 180 minutes after injection): -4.1%
